2 compounds from article doi:10.1101/2025.02.18.638599v1 (biorxiv, 2025) can be followed below.

Assay [1] has as its system E. coli BW25113. Also on record: species or system Escherichia coli. Conditions: compound alone; 24 h; inhibitor.
A further assay concerns the target T1, AcrB (Escherichia coli, UniProt P31224).
T1 sequence (P31224 1-1049): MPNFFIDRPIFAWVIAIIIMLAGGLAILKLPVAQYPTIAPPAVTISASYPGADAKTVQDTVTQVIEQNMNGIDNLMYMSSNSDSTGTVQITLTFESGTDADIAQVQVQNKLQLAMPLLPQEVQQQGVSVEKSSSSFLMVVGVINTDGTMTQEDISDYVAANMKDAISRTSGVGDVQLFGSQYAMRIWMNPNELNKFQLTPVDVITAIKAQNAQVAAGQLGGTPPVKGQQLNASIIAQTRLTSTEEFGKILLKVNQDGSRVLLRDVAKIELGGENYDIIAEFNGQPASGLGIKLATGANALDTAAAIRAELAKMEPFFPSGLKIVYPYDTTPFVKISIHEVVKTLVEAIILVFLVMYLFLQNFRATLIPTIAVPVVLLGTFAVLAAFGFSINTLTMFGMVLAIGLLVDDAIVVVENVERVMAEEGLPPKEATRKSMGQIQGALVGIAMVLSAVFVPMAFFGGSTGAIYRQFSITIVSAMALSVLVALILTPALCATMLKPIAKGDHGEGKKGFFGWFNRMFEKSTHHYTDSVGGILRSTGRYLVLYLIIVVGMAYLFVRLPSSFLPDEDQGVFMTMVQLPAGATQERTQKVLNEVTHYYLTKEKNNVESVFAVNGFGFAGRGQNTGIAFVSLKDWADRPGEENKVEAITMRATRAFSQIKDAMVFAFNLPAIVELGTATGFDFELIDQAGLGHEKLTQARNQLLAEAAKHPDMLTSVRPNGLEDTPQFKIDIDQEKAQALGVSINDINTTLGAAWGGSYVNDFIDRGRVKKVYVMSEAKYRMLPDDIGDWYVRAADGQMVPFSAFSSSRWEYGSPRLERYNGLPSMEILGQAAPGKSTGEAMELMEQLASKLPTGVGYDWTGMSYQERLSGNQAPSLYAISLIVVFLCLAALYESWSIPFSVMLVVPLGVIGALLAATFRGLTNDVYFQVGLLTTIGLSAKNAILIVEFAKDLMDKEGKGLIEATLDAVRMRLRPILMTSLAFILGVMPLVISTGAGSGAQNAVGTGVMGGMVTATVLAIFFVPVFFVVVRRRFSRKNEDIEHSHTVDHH
In words: label-free microscale thermophoresis. The class given is binding.

Assay [2] relates to E. coli BW25113. In words: microbe, parasite or virus in culture. Conditions: Escherichia coli, BW25113, 24 h, read-out: MIC, E. coli BW25113.
A further assay concerns E. coli JW5503. The assay can be described thus: microbe, parasite or virus in culture. Conditions: Escherichia coli, JW5503, 24 h, read-out: MIC, E. coli JW5503.
The next assay deals with T2, TolC (Escherichia coli, UniProt P02930).
T2 sequence (P02930 23-493): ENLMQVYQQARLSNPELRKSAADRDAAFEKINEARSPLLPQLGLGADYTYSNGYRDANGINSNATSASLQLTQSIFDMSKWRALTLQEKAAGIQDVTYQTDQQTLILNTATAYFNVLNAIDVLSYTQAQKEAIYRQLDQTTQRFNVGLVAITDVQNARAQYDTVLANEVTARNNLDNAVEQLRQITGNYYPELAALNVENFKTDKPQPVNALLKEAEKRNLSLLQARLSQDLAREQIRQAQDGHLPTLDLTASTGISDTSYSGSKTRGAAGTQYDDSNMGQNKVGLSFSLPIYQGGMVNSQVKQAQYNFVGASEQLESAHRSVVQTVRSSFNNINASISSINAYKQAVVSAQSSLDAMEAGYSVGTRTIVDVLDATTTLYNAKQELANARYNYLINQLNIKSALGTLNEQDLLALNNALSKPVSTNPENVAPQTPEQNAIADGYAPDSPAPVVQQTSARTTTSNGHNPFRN
In words: label-free microscale thermophoresis. The format is binding. (MST reads how a fluorescent partner responds to local heating, with and without ligand.)

Structures are written as SMILES. Where only a bound is given, the exact number is not on record here.

Take `COc1c(N)ccc2c1CCCC(N1CCN(CCO)CC1)C2` (centres unmarked) [LP-115]: in the assay with E. coli BW25113 [1], the “MIC, E. coli BW25113” value is above 125 µM.
Regarding `CNC(=O)c1ccccc1Nc1nc(Nc2ccc3c(c2OC)CCC[C@H](N2CCN(CCO)CC2)C3)ncc1Cl` [CEP-37440], the Kd (usually a measure of binding affinity in units of concentration) on AcrB turned out to be 198 µM; at TolC it was 282 µM. The MIC in the assay on E. coli BW25113 [2] was above 125 µM; in the assay on E. coli JW5503, above 75 µM.
